Results from patent US11471478B2, “Use of cyclodextrins in diseases and disorders involving phospholipid dysregulation” (priority 2017, dated 2022).
pIC50: −log10 of the molar value. Values joined by “and” are separate entries in the source; they are usually repeats but may differ in a detail not shown here. Equal entries are not always repeated. Where two headings read alike, the source gives them in different places.

Assays:
[1] = tested on: whole blood; details: cited from earlier work
[2] = tested on: MDA-MB-231 breast cancer cells; assay: NSG mice injected with human MDA-MB-231 breast cancer cells; assay type: in vivo
Method: NSG mice (NOD.Cg-Prkdcscid Il2rgtm1Wjl/SzJ, strain #005557 (10 wk old) were obtained from Jackson Laboratories (Bar Harbor, Me.), housed in isolated quarters, and fed with autoclaved water and food.
An MDA-MB-231 cell line was obtained (ATCC) and kept frozen in liquid nitrogen. Upon start of culture, cells were thawed (1.5 min in 37° C. water) and transferred to DMEM/F-12 supplemented with 5% FBS, 2 mM L-glutamine, 1 mM sodium pyruvate, and 0.02 mM non-essential amino acids. Cells were grown to several millions in 60 mm dishes at 70-80% confluence. Before injection, cells were briefly rinsed twice in PBS followed by Versene (EDTA, Invitrogen) and placed on ice with excess phosphate-buffered saline and phenol red-free matrigel basement membrane extract to a concentration of about 15 mg/mL matrigel. 100 μL cell mixture (20,000 cells or saline only) were injected into the lactiferous duct of the 3rd or 4th mammary glands under brief isofluorane anesthesia. Groups of 15 mice each were injected IP with 800 mg/kg of HP-α-CD, HP-β-CD per week (over four days, Mon, Tue, Thu, Fri), or saline (control) for six weeks. Size of the primary tumor was measured weekly.
Breast tissue were palpated and measured twice a week with a micro-metric analytical device scaled to 1 mm precision. Mice were weighed weekly on a digital scale (0.1 g precision).
At the end of the study period, mice were anaesthetized with isofluorane with 1× phosphate-buffered saline (PBS) and subsequently with 4% formaldehyde in PBS. Tissue from lung and liver were removed and fixated in formalin for microscopic examination. Metastases were visualized and counted by tissue embedding in paraffin and sectioning with immunohistochemistry and histological stain (H&E) and immunostained with anti-HLA antibody. After blocking for 1 h with BSA (5%, frac V), the anti-HLA was incubated at 4° C. overnight, washed for 1 h in PBS, then incubated with biotinylated anti-mouse IgG for 1 h at room temperature. After washing with PBS, metastases were detected on the slide using Envision (Dako).
After blood collection, whole blood samples were centrifuged (at 10,000 m/s^2 for 15 min and then at 100,000 m/s^2 for 10 min), and plasma was isolated. The samples were stored at −80° C. until analysis.
Prior to analysis (30 min), samples and assay reagents were equilibrated to room temperature. The samples were run at a 1:4 dilution and quantified in duplicate using a multi-plex mouse panel for quantification of IL-1β, IL-18, IL-6, IL-8, IL-17A, and GM-CSF (Bio-Plex Pro assays, Bio-Rad Laboratories) on a Luminex Bio-Plex 200 System (Bio-Rad Laboratories).

[3] = tested on: children with NPC; details: doses of up to 1000 mg/kg/d; cited from earlier work
[4] = cited from earlier work
[5] = cited from earlier work; remark: listed apart in the source
[6] = tested on: rats; details: cited from earlier work
[7] = cited from earlier work; for Permitted Daily Exposure (PDE) threshold, parenteral: CHMP 2014; for Permitted Daily Exposure (PDE) threshold, parenteral, revised: Oct. 9, 2017
[8] = rats, suppositories containing triglycerides (Witepsol H5); cited from earlier work
[9] = cited from earlier work; remark: listed apart in the source
[10] = long-term parenteral, 200 mg/kg; cited from earlier work
[11] = tested on: keratinocytes; details: cited from earlier work
[12] = parenteral, 12 g twice daily for 15 days; cited from earlier work
[13] = tested on: cats; details: doses of 4-8 g/kg; cited from earlier work
[14] = tested on: Tg19959 mice; details: four months of subcutaneous administration; cited from earlier work
[15] = tested on: BBB; details: cited from earlier work; for Transport across BBB: 2 h
[16] = tested on: SwN2a cells; details: cited from earlier work
[17] = tested on: MDA-MB 231 and MCF-7 human breast epithelial cell lines; assay: Wound healing / gap closure migration assay; assay type: cell-based; details: 2 h treatment, MDA-MB 231 and MCF-7
Method: Published results have shown that β-CD inhibits human MDA-MB 231 cell migration (Guerra F S, Sampaio LdS, et al. (2016) Translational Medicine Communications 1:3). This inhibition was attributed to the ability of β-CD to “deplete cholesterol”. β-CD, however, depletes also phospholipids. […] Cells were cultured in 24-well culture plates (Cytoselect CBA-120, 0.9 mm wound healing/gap closure migration assay) for 24 h with wound healing insert in place. Cells were then treated for 2 h with HP-β-CD, HP-α-CD, or control. Protocol: Warm up the 24-well plate (CBA-120, Cell BioLabs Inc.) with 0.9 mm CytoSelect Wound Healing Inserts at room temperature for 10 min. Using sterile forceps, orient the desired number of inserts in the plate wells with their “wound field” aligned in the same direction. […] Add 500 μL of cell suspension to each well by carefully inserting the pipette tip through the open end at the top of the insert. For optimal cell dispersion, add 250 μL of cell suspension to either side of the open ends at the top of the insert. Incubate cells in a cell culture incubator for 12-24 hours. Carefully remove the insert from the well to begin the wound healing assay. Use sterile forceps to grab and lift the insert slowly from the plate well. Slowly aspirate and discard the media from the wells. Wash wells with media to remove dead cells and debris. Finally, add media to wells to keep cells hydrated. Repeat wash if wells still have debris or unattached cells. When washing is complete, add media with FBS and/or compounds to continue cell culture and wound healing process. Agents that inhibit or stimulate cell migration can be added directly to the wells. Incubate cells in a cell culture incubator (2 hours) and then wash cells with PBS and then add fresh media without compounds. Incubate 12-24 hours before wash and fixing. Remove the fixation solution and add 400 μL of Cell Stain Solution to each well. Allow the stain to incubate with the cells for 15 minutes at room temperature. Aspirate and discard the solution. Carefully wash each stained well 3× with deionized water. Discard washes and allow cells to dry at room temperature. Cells that migrated into the wounded area or protruded from the border of the wound were visualized and photographed under an inverted microscope. Determine the surface area of the defined wound area: Total Surface Area=0.9 mm×length. Determine the surface area of the migrated cells into the wound area: Migrated Cell Surface Area=length of cell migration (mm)×2× length. Percent Closure (%)=Migrated Cell Surface Area/Total Surface Area×100 (see FIG. 36)

[18] = tested on: mice/rats; details: in vivo; cited from earlier work
[19] = cited from earlier work; remark: listed apart in the source
[20] = tested on: fibroblasts of lysosomal storage diseases; details: about 6 mM α-CD, about 8 mM HP-β-CD; cited from earlier work
[21] = cited from earlier work; remark: listed apart in the source
[22] = tested on: erythrocytes; details: cited from earlier work
[23] = tested on: rats; details: cited from earlier work; remark: listed apart in the source
[24] = tested on: rats; details: cited from earlier work; remark: listed apart in the source
[25] = tested on: rats; details: s.c. single dose 0.100 g/kg; cited from earlier work
[26] = tested on: erythrocytes; details: cited from earlier work; remark: listed apart in the source
[27] = 2.1% α-CD added to Western diet; cited from earlier work
[28] = IP 800 mg/kg per week for six weeks

## CC(O)COC[C@H]1O[C@@H]2O[C@H]3[C@H](O)[C@@H](O)[C@@H](O[C@H]4[C@H](O)[C@@H](O)[C@@H](O[C@H]5[C@H](O)[C@@H](O)[C@@H](O[C@H]6[C@H](O)[C@@H](O)[C@@H](O[C@H]7[C@H](O)[C@@H](O)[C@@H](O[C@H]8[C@H](O)[C@@H](O)[C@@H](O[C@H]1[C@H](O)[C@H]2O)O[C@@H]8COCC(C)O)O[C@@H]7COCC(C)O)O[C@@H]6COCC(C)O)O[C@@H]5COCC(C)O)O[C@@H]4COCC(C)O)O[C@@H]3COCC(C)O (stereo partly drawn) [HP-β-CD, hydroxypropyl-beta-cyclodextrin]
[1]
  whole blood TD50: 9 mM/L
[2]; [28]
  Tumor volume, median: 378 mm3
  effect on tumor volume: effective
[2]; conventional 0.05 level
  plasma cytokines (IL-1β, IL-18, IL-6, IL-8, IL-17A, GM-CSF) versus Vehicle: significant in four other markers (not in IL-8)
[2]; groups of 15 mice
  mice that did not develop lung metastases: 3 mice
  mice who died: two
[3]
  tolerability: well tolerated
[4]
  Solubility in water: >600 g/l and >600 ^2) g/l
[5]
  i.v. toxicity, 500 mg/kg: no damage
[6]; rat, in vivo, iv
  i.v. toxicity, 1 g/kg daily: no signs ^6)
[7]
  Permitted Daily Exposure (PDE) threshold, parenteral: 10 mg/kg/day
  Permitted Daily Exposure (PDE) threshold, parenteral, revised: 200 mg/kg/day
[8]
  rectal absorption: 26%
[9]
  excreted after i.v. unchanged in urine: ~90%
[10]
  bone mineral density (BMD): decrease bone mineral density (BMD)
[11]
  caspase-dependent apoptotic cell death: not
[12]
  side effects: No side effects were observed
[13]
  hearing: causes permanent hearing loss
[14]
  spatial learning and memory deficits: significantly improved spatial learning and memory deficits
[15]; 1 mM
  Transport across BBB: 6.6 (1 mM) %
[15]
  BBB breakdown: 2.5 mM
  toxicity on the BBB model: similarly safe
[16]
  level of membrane cholesterol: reduced
  levels of Aβ42: dramatically lowered
[17]
  cell migration / wound closure, concentration dependence: migration decreased with higher concentration
[18]
  LD50 i.v./i.p. in mice/rats: 10000 mg/kg
[19]
  half-life (t1/2) after i.v. in rats: 20 min
  oral absorption in rats: ≤3%

## OC[C@H]1O[C@@H]2O[C@H]3[C@H](O)[C@@H](O)[C@@H](O[C@H]4[C@H](O)[C@@H](O)[C@@H](O[C@H]5[C@H](O)[C@@H](O)[C@@H](O[C@H]6[C@H](O)[C@@H](O)[C@@H](O[C@H]7[C@H](O)[C@@H](O)[C@@H](O[C@H]1[C@H](O)[C@H]2O)O[C@@H]7CO)O[C@@H]6CO)O[C@@H]5CO)O[C@@H]4CO)O[C@@H]3CO [α-CD, alpha-cyclodextrin]
[1]
  whole blood TD50: 11 mM/L
[6]; 1 g/kg daily
  i.v. toxicity, 1 g/kg daily: 1 died @ 2 d
[7]
  Permitted Daily Exposure (PDE) threshold, parenteral: 0.02 mg/kg/day
  Permitted Daily Exposure (PDE) threshold, parenteral, revised: 200 mg/kg/day
[9]
  excreted after i.v. unchanged in urine: ~90%
[20]
  reduction of lysosomal storage: more effective in reducing lysosomal storage than about 8 mM HP-β-CD
[21]
  found in urine within 6-8 h post oral administration: 1.6% and 2.0%
[11]
  caspase-dependent apoptotic cell death: not
[15]; 0.5 mM
  Transport across BBB: 21.5 (0.5 mM) %
[15]
  toxicity on the BBB model: more toxic
[22]; 10 mM, FIG. 3
  reduction of phospholipids: 30%
[22]
  extraction of cholesterol: negligible even at hemolytic concentrations
[23]
  LD50 with bolus i.v. injections: 1000 mg/kg
[24]; s.c. daily doses 0.100 g/kg
  Nephrosis/Death: 0.100 no nephrosis
[24]; s.c. daily doses 1.000 g/kg
  Nephrosis: 1.000 all had severe nephrosis,
[24]; s.c. up to 7 daily doses of 1.000 g/kg
  Death: one rat died (after 2 days)
[25]
  Nephrosis (light microscopy): 0.100 no changes
[26]; comparison between cyclodextrins
  hemolytic activity: lower than that of both β-CD and HP-β-CD
[26]; read-out: hemolytic IC50
  pIC50: 1.80
[27]
  decrease of plasma phospholipids: 17.5%
[18]
  LD50 i.v./i.p. in mice/rats: 500 to 1000 mg/kg
[19]
  half-life (t1/2) after i.v. in rats: 25 min
  oral absorption in rats: 2-3%
